# Results from publication PMC6934184, “Selective DNA-PKcs inhibition extends the therapeutic index of localized radiotherapy and chemotherapy” (The Journal of Clinical Investigation, 2019).
# Target: T1, PDGFRA V561D (Homo sapiens, UniProt P16234, V561D)
# T1 construct: purchased Thermo Fisher Scientific (Life Technologies) SelectScreen
# Assay: SelectScreen Z'LYTE
# Type: biochemical
# Summary of the method: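 Percent values come from Thermo SelectScreen profiling of NU5455, combining activity and binding assays. CSF1R was run in Z'LYTE format at Km app ATP, and CAMK1 in Adapta format with ATP listed at 10.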
# T1 sequence (P16234 24-1089 V561D): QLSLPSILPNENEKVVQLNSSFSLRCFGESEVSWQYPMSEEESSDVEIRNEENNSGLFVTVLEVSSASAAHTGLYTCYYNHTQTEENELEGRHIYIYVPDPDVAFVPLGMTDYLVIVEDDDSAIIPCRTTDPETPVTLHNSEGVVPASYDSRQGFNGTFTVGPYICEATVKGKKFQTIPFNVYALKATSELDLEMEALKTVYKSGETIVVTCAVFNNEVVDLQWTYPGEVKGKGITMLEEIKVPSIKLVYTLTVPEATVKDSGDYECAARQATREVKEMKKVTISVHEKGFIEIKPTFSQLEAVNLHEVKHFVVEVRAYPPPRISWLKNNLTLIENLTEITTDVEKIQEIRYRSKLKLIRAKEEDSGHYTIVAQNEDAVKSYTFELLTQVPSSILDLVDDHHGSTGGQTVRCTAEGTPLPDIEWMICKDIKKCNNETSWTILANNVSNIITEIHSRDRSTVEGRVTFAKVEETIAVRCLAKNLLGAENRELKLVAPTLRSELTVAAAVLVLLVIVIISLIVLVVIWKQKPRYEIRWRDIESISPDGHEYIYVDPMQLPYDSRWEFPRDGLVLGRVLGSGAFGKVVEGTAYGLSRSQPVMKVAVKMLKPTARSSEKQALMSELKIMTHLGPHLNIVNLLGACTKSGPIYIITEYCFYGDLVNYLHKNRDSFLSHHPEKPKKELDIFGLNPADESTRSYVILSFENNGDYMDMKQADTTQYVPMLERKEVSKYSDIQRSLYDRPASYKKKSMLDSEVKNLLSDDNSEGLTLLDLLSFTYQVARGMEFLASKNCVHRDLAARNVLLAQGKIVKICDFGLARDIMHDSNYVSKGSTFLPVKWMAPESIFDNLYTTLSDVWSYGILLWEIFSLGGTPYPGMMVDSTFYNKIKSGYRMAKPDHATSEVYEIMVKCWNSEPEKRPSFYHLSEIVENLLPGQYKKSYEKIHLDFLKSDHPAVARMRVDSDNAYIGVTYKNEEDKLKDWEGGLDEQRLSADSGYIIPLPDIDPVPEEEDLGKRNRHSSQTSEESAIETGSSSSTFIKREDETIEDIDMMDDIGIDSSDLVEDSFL
smiles,measurement,value
CN(C(=O)CN1CCOCC1)c1ccc2sc3c(-c4cccc5c(=O)cc(N6CC7CCC(C6)O7)oc45)cccc3c2c1 [NU5455],inhibition at 1 µM,-2.3%
